Data set [1] has as its system C57BL/KsJ db/db mice. Kind of data set: Blood glucose in db/db type 2 diabetes mice (Embodiment 4). It counts as in vivo. The conditions noted are these: gavage; for reduction of blood glucose contents: 1 month, nanoparticles 100 mg/kg once every 3 days, LA monomer 100 mg/kg and metformin 120 mg/kg once a day, relative to model-normal control difference. As to the method:
A total of 24 C57BL/KsJ db/db mice were randomly divided into 4 groups according to body weight and blood glucose, with 6 mice in each group. […] There were 6 littermate w/w male mice of the same week age as the solvent control group. […] After administration of a single dose, the blood glucose changes of mice were continuously monitored for 3 days. During the 1-month treatment cycle, the blood glucose changes of the mice were detected every 3 days. On the 30th day, 2 h after the end of administration, the blood glucose of mice was measured, and the percentage of blood glucose reduced by the drug was calculated based on the difference between the blood glucose of the model and the normal control group. The mice were killed by enucleation and bloodletting, serum samples were collected by centrifugation at room temperature, the serum insulin content was detected by mouse insulin ELISA detection kit, and the insulin resistance index was calculated, and the percentage of the drug to reduce the serum insulin content and insulin resistance index was calculated based on the difference between the model and the normal control group.
The results of the quantitative experiment were expressed as mean±variance (x±s). SPSS version19.0 Statistical Software (Chicago, IL, USA) was used to compare the differences between groups using one-way analysis of variance. When the difference was significant (P<0.05), the Turkey post hoc method was used for pairwise comparison, and when P<0.05, the difference was considered statistically significant.

In data set [2] the test system is C57BL/KsJ db/db mice. Kind of data set: Serum insulin content and insulin resistance index in db/db diabetic mice. It counts as in vivo. Particulars: gavage, end of 1 month treatment, nanoparticles 100 mg/kg every 3 days, LA monomer 100 mg/kg and metformin 120 mg/kg daily. An excerpt: 8-week male C57BL/KsJ db/db mice, SPF grade, provided by Jiangsu GemPharmatech Co. Ltd., Changzhou Branch, certificate number: 202012449, with an initial weight of 44±2 g, underwent adaptive feeding for one week. A total of 24 C57BL/KsJ db/db mice were randomly divided into 4 groups according to body weight and blood glucose, with 6 mice in each group. […] There were 6 littermate w/w male mice of the same week age as the solvent control group. […] After administration of a single dose, the blood glucose changes of mice were continuously monitored for 3 days. During the 1-month treatment cycle, the blood glucose changes of the mice were detected every 3 days. […] The mice were killed by enucleation and bloodletting, serum samples were collected by centrifugation at room temperature, the serum insulin content was detected by mouse insulin ELISA detection kit, and the insulin resistance index was calculated, and the percentage of the drug to reduce the serum insulin content and insulin resistance index was calculated based on the difference between the model and the normal control group. The results of the quantitative experiment were expressed as mean±variance (x±s). SPSS version19.0 Statistical Software (Chicago, IL, USA) was used to compare the differences between groups using one-way analysis of variance. When the difference was significant (P<0.05), the Turkey post hoc method was used for pairwise comparison, and when P<0.05, the difference was considered statistically significant.

Data set [3] concerns C57BL/KsJ db/db mice. Kind of data set: Blood glucose in db/db diabetic nephropathy mice (Embodiment 6). It counts as in vivo. Particulars: 30 mg/kg intraperitoneal once a day, four weeks. The procedure:
10-week male C57BL/KsJ db/db mice, SPF grade, provided by Jiangsu GemPharmatech Co. Ltd., Changzhou Branch, certificate number: 202012449, with an initial weight of 44±2 g, underwent adaptive feeding for two weeks. […] There were 6 littermate w/w male mice of the same week age as the solvent control group. Different doses were given by intraperitoneal injection at 10 mL/kg volume once a day for four weeks, respectively, and equal volumes of normal saline were given by intraperitoneal injection in the control and model groups. During the treatment cycle, the blood glucose changes in mice were detected every three days, and the percentages of blood glucose reduced by the drugs were calculated based on the difference between the blood glucose of the model and the normal control group, so as to clarify the hypoglycemic effect of the drugs. […] The results of the quantitative experiment were expressed as mean±variance (x±s). SPSS version19.0 Statistical Software (Chicago, IL, USA) was used to compare the differences between groups using one-way analysis of variance. When the difference was significant (P<0.05), the Turkey post hoc method was used for pairwise comparison, and when P<0.05, the difference was considered statistically significant.

The subject of data set [4] is C57BL/KsJ db/db mice. Kind of data set: Serum CRE, BUN and UACR in diabetic nephropathy mice. It counts as in vivo. Particulars: 30 mg/kg i.p. once a day, four weeks. As to the method: (§1) 10-week male C57BL/KsJ db/db mice, SPF grade, provided by Jiangsu GemPharmatech Co. Ltd., Changzhou Branch, certificate number: 202012449, with an initial weight of 44±2 g, underwent adaptive feeding for two weeks. […] There were 6 littermate w/w male mice of the same week age as the solvent control group. Different doses were given by intraperitoneal injection at 10 mL/kg volume once a day for four weeks, respectively, and equal volumes of normal saline were given by intraperitoneal injection in the control and model groups. During the treatment cycle, the blood glucose changes in mice were detected every three days, and the percentages of blood glucose reduced by the drugs were calculated based on the difference between the blood glucose of the model and the normal control group, so as to clarify the hypoglycemic effect of the drugs.

Data set [5] has as its system C57BL/KsJ db/db mice. The data set can be described thus: Kidney tissue pathology (HE, PAS, TEM) in diabetic nephropathy mice. It counts as in vivo. The conditions noted are these: 30 mg/kg i.p. once a day, four weeks. The procedure:
as §1

Data set [6] relates to C57BL/KsJ db/db mice. Kind of data set: MDA content and SOD activity in kidney tissues. It counts as in vivo. The conditions noted are these: 30 mg/kg i.p. once a day, 4 weeks. The procedure:
as §1

Data set [7] relates to C57BL/KsJ db/db mice. The data set can be described thus: Transcript levels of TNF-α, IL-1β and IL-6 genes in kidney tissues. It counts as in vivo. The conditions noted are these: 30 mg/kg i.p. once a day, 4 weeks. The procedure:
as §1

Data set [8] concerns C57BL/KsJ db/db mice. The data set can be described thus: Blood glucose in db/db diabetic peripheral neuropathy mice (Embodiment 8). It counts as in vivo. The conditions noted are these: 50 mg/kg i.p. three times a week, 8 weeks. The procedure: (§2) Eighteen 16-week male C57BL/KsJ db/db mice, SPF grade, provided by Jiangsu GemPharmatech Co. Ltd., Changzhou Branch. […] The littermate w/w male mice of the same age were selected as the control group. The heat pain threshold was measured in all mice before administration to determine DPN symptoms. […] The control group and the db/db model group were intraperitoneally injected with an equal volume of saline. During the treatment period, blood glucose changes in mice were monitored every three days to determine the hypoglycemic effect of the drug. At the end of the 8th week, the heat pain threshold was detected. Mice were sacrificed to detect related factors through detection kits.

Data set [9] deals with C57BL/KsJ db/db mice. The data set can be described thus: Na+-K+-ATPase activity in red blood cells and sciatic nerve. It counts as in vivo. The conditions noted are these: 50 mg/kg i.p. three times a week, 8 weeks. The procedure: as §2
After 8 weeks treatment, all mice were sacrificed and the sciatic nerve was isolated. In order to determine the activity of Na^+—K^+-ATPase in red blood cells and sciatic nerve of mice, 10 μL whole blood was collected and added into 240 μL distilled water for mixing, and the activity of Na^+—K^+-ATPase was determined immediately. The sciatic nerve tissue of mice was collected. First, the sciatic nerve was cut into fragments (100 mg: 1800 μL) with small scissors in normal saline and homogenized with Beed Ruptor 24 Elite. Then, the homogenate was centrifuged at 4° C. and 3500 rpm for 15 min, and the supernatant was collected for use.

The subject of data set [10] is C57BL/KsJ db/db mice. The data set can be described thus: SOD activity and MDA, GSH contents in sciatic nerve. It counts as in vivo. The conditions noted are these: 50 mg/kg i.p. three times a week, 8 weeks. The procedure:
as §2
(§3) At the end of the experiment, mice were sacrificed and sciatic nerve cells were isolated. In order to determine the contents of MDA, GSH, SOD, TNF-α, IL-6 and IL-1β in the sciatic nerve, the sciatic nerve was first cut into fragments (100 mg: 1800 μL) with small scissors in normal saline and homogenized with Beed Ruptor 24 Elite. Then, the homogenate was centrifuged at 4° C. and 3500 rpm for 15 min, and the supernatant was collected for use. Then, commercial kits were used to determine the activity of SOD and the contents of MDA, GSH, TNF-α, IL-6 and IL-1β in sciatic nerve homogenate.

Data set [11] relates to C57BL/KsJ db/db mice. The data set can be described thus: TNF-α, IL-1β and IL-6 contents in sciatic nerve. It counts as in vivo. The conditions noted are these: 50 mg/kg i.p. three times a week, 8 weeks. As to the method: as §2, §3
For data set [12] the following is noted: intravenous injection, human body; cited from earlier work.

Structures are written as SMILES. Structures can show the parent of a compound that is named as a salt.

`O=C(O)CCCCC1CCSS1` (centres unmarked) [LA monomer, lipoic acid]: in [1], the “reduction of blood glucose contents” value is given as “no hypoglycemic effect”. Also, the “blood glucose levels versus model group after a single dose” value in data set [1] (single dose 100 mg/kg, monitored 3 days) is reported as “no significant difference”. For the same compound, the “decrease of serum insulin content” value in data set [2] is “no significant difference”. Also, the “reduction of blood glucose content” value in data set [3] is reported as “no hypoglycemic effect”. Besides, in data set [4], the “decrease of BUN content vs db/db model group” value came to 25.45%, the “decrease of UACR level vs db/db model group” value worked out at 24.75% and the “decrease of serum CRE vs db/db model group” value was found to be 21.05%. In data set [5], the “decrease of basement membrane thickness vs db/db model group” value was 6.57%, the “increase of number of foot processes vs db/db model group” value is 10.14% and the “shrinkage of glomeruli vs db/db model group” value turned out to be 25.50%. In data set [6], the “increase of SOD activity in kidney tissues” value was found to be 55% and the “reduction of MDA content in kidney tissues” value is 9.8%. Besides, in data set [7], the “reduction of IL-1β transcript level in kidney” value was determined as 18.18%, the “reduction of IL-6 transcript level in kidney” value is listed as 23.33% and the “reduction of TNF-α transcript level in kidney” value is reported as 22.5%. For the same compound, in [8], the “hypoglycemic effect (in words)” value is listed as “no hypoglycemic effect”. In [9], the “increase of Na+-K+-ATPase activity in sciatic nerve vs db/db mice” value is given as 120% and the “increase of Na+-K+-ATPase activity of red blood cells vs db/db mice” value came out at 137%. Also, in data set [10], the “decrease of MDA content in sciatic nerve” value stood at 30.79%, the “increase of GSH content in sciatic nerve” value was found to be 10.79 and the “increase of SOD activity in sciatic nerve” value amounted to 15.76%. Besides, in data set [11], the “decrease of IL-1β level in sciatic nerve tissue vs db/db mice” value was 27.46%, the “decrease of IL-6 level in sciatic nerve tissue vs db/db mice” value is recorded as 38.42% and the “decrease of TNF-α level in sciatic nerve tissue vs db/db mice” value was 34.42%. Also, the “fraction passing through the glomerulus into the renal tubules and excreted in the urine” value in data set [12] is listed as 80-90%.
In the case of `CN(C)C(=N)N=C(N)N` [metformin, metformin hydrochloride], the “reduction of blood glucose contents” value in [1] turned out to be 50.28%. Moreover, the “duration of hypoglycemic effect after a single dose” value in data set [1] (single dose, nanoparticles 100 mg/kg, metformin 120 mg/kg) is recorded as not above 24 h. Besides, in [2], the “decrease of insulin resistance index” value amounted to 53.68% and the “decrease of serum insulin content” value was determined as 34.69%.

Values taken from patent US20240398756A1, “DRUG FOR REDUCING BLOOD GLUCOSE AND/OR TREATING DIABETIC COMPLICATIONS” (SICHUAN UNIVERSITY, priority 2022, published 2024).
